As usually defined, the IC50 is the concentration that inhibits the measured activity by half.

This note sets out measurements from patent US20100009956A1, “NOVEL SUBSTITUTED PYRIMIDINES AS CYSTEINE PROTEASE INHIBITORS” (Glaxo Group Limited , a corporation, priority 2006, published 2010).

One assay has as its target Falcipain-2 (Plasmodium falciparum, UniProt Q8I6U4). Briefly: Falcipain-2 enzymatic assay (assay 1). Type of assay: biochemical. How it is done:
(§1) Assay 1) Determination of Falcipain-2, Falcipain-3, Vivapain-2, Cathepsin K Cathepsin S, Cathepsin L, and Cathepsin B Proteolytic Catalytic Activity
(§2) Assays for Falcipain-2, Falcipain-3, and Vivapain-2 are carried out with parasitic recombinant enzymes. Cathepsins K, S, L, and B are carried out with human recombinant enzymes. Standard assay conditions for the determination of kinetic constants used a fluorogenic peptide substrate, typically H-D-VLR-AFC (Falcipain-2, Falcipain-3, Vivapain-2), Z-FR-AFC (Cathepsin K, L, B), or KQKLR-AMC (Cathepsin S) and are determined in 100 mM sodium acetate, pH 5.5, containing 10 mM DTT and 0.5 mM CHAPS (Falcipain-2, Falcipain-3, Vivapain-2), and 100 mM sodium acetate, pH 5.5, containing 5 mM L-cysteine, 1 mM CHAPS and 5 mM EDTA (Cathepsin K, L, B), or 50 mM MES, pH 6.5, containing 0.5 mM CHAPS, 10 mM L-CYS, 5 mM EDTA (Cathepsin S). Stock substrate solutions are prepared at 20 mM in DMSO. The activity assays contained 30 uM substrate (Falcipain-2, Falcipain-3, Vivapain-2), 20 uM substrate (Cathepsin K), 25 uM substrate (Cathepsin B), 5 uM substrate (Cathepsin L), and 30 uM substrate (Cathepsin S). All assays contained 1% DMSO. […] All assays are conducted at ambient temperature as end point assays being quenched after 60 minutes with the exception of Cathepsin S at 90 minutes, with 16.6 uM E-64 in 1% DMSO. Product formation (AFC or AMC) is determined from fluorescence (excitation at 405 nm; emission at 530 nm, AFC, or excitation at 360 nm; emission at 460 nm, AMC) monitored with a LJL Aquest (Molecular Devices) fluorescent plate reader. In the case of kinetic reads (used in mechanism of action studies), the reaction is not quenched but is read in the plate reader every 3 minutes for approximately 90 minutes. In addition, the mechanism of action studies for Falcipain-2 utilize Z-LR-AMC as the substrate. Product formation is determined from the fluorescence of AMC, measured with a LJL Acquest (Molecular Devices) fluorescent plate reader (excitation at 360 nm; emission at 460 nm).
(§3) Potential inhibitors are evaluated using the quenched read (endpoint) method. Assays are carried out in the presence of variable concentrations of test compound. Reactions are initiated by addition of enzyme and substrate to wells containing inhibitor stamped in 100% DMSO. For endpoint assays, the reaction is quenched with the addition of E64. Dose response data is fit to an IC50 curve with preset fitting tools according to equation 1:
(§4) y=a+(b−a)/(1+(10^x/10^c)^d) (1)
(§5) where y is the response at a particular inhibitor concentration x, a is the minimum response value, b is the maximum response value, c is the IC50, and d is the slope of the IC50 curve. Assuming the compound is a competitive inhibitor, the apparent KI can be calculated from IC50, as shown in equation 2: […]

The target in the next assay is Falcipain-3 (Plasmodium falciparum, UniProt Q8IIL0). The assay can be described thus: Falcipain-3 enzymatic assay (assay 1). Format: biochemical. The method, then: as §1, §2, §3, §4, §5
Falcipain-3, sequence (Q8IIL0 243-492): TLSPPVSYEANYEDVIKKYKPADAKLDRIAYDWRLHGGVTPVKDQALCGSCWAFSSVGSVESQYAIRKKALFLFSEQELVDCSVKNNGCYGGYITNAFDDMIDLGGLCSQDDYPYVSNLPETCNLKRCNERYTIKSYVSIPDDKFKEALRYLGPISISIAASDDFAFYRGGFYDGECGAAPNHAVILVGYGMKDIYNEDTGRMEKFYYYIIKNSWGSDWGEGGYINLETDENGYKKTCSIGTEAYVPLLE

Structures can show the parent of a compound that is named as a salt. Where two headings read alike, the source gives them in different places.

Falcipain-2, sequence (Q8I6U4 244-484): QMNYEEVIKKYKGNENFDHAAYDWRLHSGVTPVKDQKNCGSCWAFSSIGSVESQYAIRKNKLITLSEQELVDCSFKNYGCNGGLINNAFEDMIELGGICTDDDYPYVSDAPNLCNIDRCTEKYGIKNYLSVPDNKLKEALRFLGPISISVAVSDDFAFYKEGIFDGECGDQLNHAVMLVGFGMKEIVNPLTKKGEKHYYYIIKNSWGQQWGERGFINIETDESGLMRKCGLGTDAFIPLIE

For the compound `CC1CCC(N(NC(=O)c2ccc(CN3CCN(C)CC3)cc2)c2nc(C#N)ncc2Br)C1` (mixture of isomers) [Example 26, N′-(5-bromo-2-cyano-4-pyrimidinyl)-N′-(3-methylcyclopentyl)-4-[(4-methyl-1-piperazinyl)methyl]benzohydrazide trifluoroacetate], the IC50 on Falcipain-2 is below 1 nM; against Falcipain-3 it was 15 to 150 nM.

`CN1CCN(Cc2ccc(C(=O)NN(CC(C)(C)C)c3nc(C#N)ncc3Br)cc2)CC1` [Comparative Example 39, N′-(5-bromo-2-cyano-4-pyrimidinyl)-N′-(2,2-dimethylpropyl)-4-[(4-methyl-1-piperazinyl)methyl]benzohydrazide trifluoroacetate, reference compound]: the IC50 fell in the range of 15 to 150 nM at Falcipain-2 and 150 to 250 nM against Falcipain-3.

As for `N#Cc1ncc(Br)c(N(NC(=O)c2cccc(CN3CCC(N4CCOCC4)CC3)c2)C2CCCC2)n1` [Example 13, N′-(5-bromo-2-cyano-4-pyrimidinyl)-N′-cyclopentyl-3-{[4-(4-morpholinyl)-1-piperidinyl]methyl}benzohydrazide trifluoroacetate], the IC50 is below 1 nM on Falcipain-2 and 2.5 to 15 nM against Falcipain-3.

On to `CN1CCN(Cc2ccc(C(=O)NN(c3nc(C#N)ncc3Br)C3CCOCC3)cc2)CC1` [Example 42, N′-(5-bromo-2-cyano-4-pyrimidinyl)-4-[(4-methyl-1-piperazinyl)methyl]-N′-(tetrahydro-2H-pyran-4-yl)benzohydrazide trifluoroacetate], for which the IC50 at Falcipain-2 (parasitic recombinant enzyme, H-D-VLR-AFC substrate, pH 5.5, endpoint read, read-out: Falcipain-2 IC50) was below 1 nM; at Falcipain-3 it was 15 to 150 nM.

On to `CN1CCN(C2CCN(Cc3ccc(C(=O)NN(c4nc(C#N)ncc4Br)C4CCN(C(=O)OCc5ccccc5)CC4)cc3)CC2)CC1` [Example 48, Phenylmethyl 4-{1-(5-bromo-2-cyano-4-pyrimidinyl)-2-[(4-{[4-(4-methyl-1-piperazinyl)-1-piperidinyl]methyl}phenyl)carbonyl]hydrazino}-1-piperidinecarboxylate triflouroacetate], for which the IC50 was 1 to 2.5 nM on Falcipain-2 and 2.5 to 15 nM against Falcipain-3.

For the compound `CN(CCO)Cc1ccc(C(=O)NN(c2nc(C#N)ncc2Cl)C2CCCC2)cc1` [Example 58, N′-(5-chloro-2-cyano-4-pyrimidinyl)-N′-cyclopentyl-4-{[(2-hydroxyethyl)(methyl)amino]methyl}benzohydrazide trifluoroacetate], the IC50 against Falcipain-2 is below 1 nM; at Falcipain-3, 1 to 2.5 nM.

With `CN1CCN(Cc2ccc(C(=O)NN(c3nc(C#N)ncc3Cl)C3CCOCC3)cc2)CC1` [Example 67, N′-(5-chloro-2-cyano-4-pyrimidinyl)-4-[(4-methyl-1-piperazinyl)methyl]-N′-(tetrahydro-2H-pyran-4-yl)benzohydrazide trifluoroacetate], the IC50 against Falcipain-2 was below 1 nM; against Falcipain-3, 2.5 to 15 nM.

Turning to `CCN(Cc1ccc(C(=O)NN(c2nc(C#N)ncc2Cl)C2CCCC2)cc1)C(C)C` [Example 68, N′-(5-chloro-2-cyano-4-pyrimidinyl)-N′-cyclopentyl-4-{[ethyl(1-methylethyl)amino]methyl}benzohydrazide trifluoroacetate], the IC50 is below 1 nM against Falcipain-2 and 2.5 to 15 nM at Falcipain-3.

For the compound `CN(Cc1ccc(C(=O)NN(c2nc(C#N)ncc2Cl)C2CCCC2)cc1)C(C)(C)C` [Example 73, N′-(5-chloro-2-cyano-4-pyrimidinyl)-N′-cyclopentyl-4-{[(1,1-dimethylethyl)(methyl)amino]methyl}benzohydrazide trifluoroacetate], the IC50 was below 1 nM against Falcipain-2 and 2.5 to 15 nM at Falcipain-3.

Turning to `CCN(C)Cc1ccc(C(=O)NN(c2nc(C#N)ncc2Cl)C2CCCC2)cc1` [Example 74, N′-(5-chloro-2-cyano-4-pyrimidinyl)-N′-cyclopentyl-4-{[ethyl(methyl)amino]methyl}benzohydrazide trifluoroacetate], the IC50 against Falcipain-2 is below 1 nM; against Falcipain-3, 15 to 150 nM.
